Measurements from US20230391736A1, “3-TETRAZOLYLMETHYL-1,3,5-TRIAZIN-2,4-DIONE COMPOUND INHIBITING CORONAVIRUS 3CL PROTEASE ACTIVITY AND PREPARATION METHOD AND USE THEREOF” (priority 2022, published 2023).
Where two headings read alike, the source gives them in different places.

Columns and labels:
[1] = molecular target: SARS-CoV-2 3CL^pro (Severe acute respiratory syndrome coronavirus 2 (2019-nCoV) (SARS-CoV-2), UniProt P0DTD1); assay: biochemical; conditions: for IC50: FRET
[2] = tested on: HEK293 cells; assay: In-vitro cytotoxicity by the MTT method, HEK293 cells; conditions: 24 hrs
Experimental: (§1) The in-vitro cytotoxicity of Compounds 1, 12, and 17 was evaluated by the MTT method. HepG2, HEK293 and A549 cells in logarithmic growth phase were respectively trypsinized into a cell suspension. The cell density was adjusted to 5×10^4 cells/mL. 180 μL per well of the cell suspension was inoculated into a sterile 96-well plate at 37° C., and cultured in an incubator at 5% CO2 for 24 hrs. After the cells were attached to the bottom of the plate, 20 μL of the drug solutions over the concentration gradients were respectively added into each well, and 6 replicate wells were set in parallel. Also, a blank group (group without cells and drug) and a control group (group without drug) were set. The system was incubated in an incubator at 37° C. and 5% CO2 for 24 hrs, and then 20 μL per well of a 5 g/L MTT solution was added and incubated for another 4 hrs. After the incubation was completed, the culture medium in the well was gently aspirated, and 100 μL of DMSO was added to each well. Then the crystal was fully dissolved in a shaker for 10 min at a low speed. After that, the absorbency of each well was measured at OD490 nm in an enzymelinked immunodetector, and the survival rate of cells was calculated.

[3] = tested on: HepG2 cells; assay: In-vitro cytotoxicity by the MTT method, HepG2 cells; conditions: 24 hrs
Experimental: as §1

[4] = tested on: A549 cells; assay: In-vitro cytotoxicity by the MTT method, A549 cells; conditions: 24 hrs
Experimental: as §1

[5] = class symbols, read-out: IC50 (nM), inhibitory activity against 3CL^pro
[6] = non-linear regression, read-out: IC50 against 3CL^pro

SMILES | IC50 [1, 5] | IC50 [1, 6] | Survival rate of HEK293 cells ([2]; 1.5625 nM) | Survival rate of HEK293 cells ([2]; 3.125 nM) | Survival rate of HEK293 cells ([2]; 6.25 nM) | Survival rate of HEK293 cells ([2]; 12.5 nM) | Survival rate of HEK293 cells ([2]; 25 nM) | Survival rate of HEK293 cells ([2]; 50 nM) | Survival rate of HEK293 cells ([2]; 100 nM) | Survival rate of HEK293 cells ([2]; 200 nM) | Survival rate of HEK293 cells ([2]; 400 nM) | Survival rate of HepG2 cells ([3]; 1.5625 nM) | Survival rate of HepG2 cells ([3]; 3.125 nM) | Survival rate of HepG2 cells ([3]; 6.25 nM) | Survival rate of HepG2 cells ([3]; 12.5 nM) | Survival rate of HepG2 cells ([3]; 25 nM) | Survival rate of HepG2 cells ([3]; 50 nM) | Survival rate of HepG2 cells ([3]; 100 nM) | Survival rate of HepG2 cells ([3]; 200 nM) | Survival rate of HepG2 cells ([3]; 400 nM) | other results
Cn1cc2cc(/N=c3\[nH]c(=O)n(Cc4nnn[nH]4)c(=O)n3Cc3ccc(F)cc3)c(Cl)cc2n1 [Compound 12] | < 200 nM | 184 nM | 93.44% | 92.73% | 91.16% | 89.80% | 85.34% | 82.99% | 82.76% | 78.93% | 77.46% | 96.16% | 94.78% | 93.92% | 91.45% | 88.16% | 87.52% | 83.43% | 82.56% | 77.32% | inhibition at 0.0001 µM ([1]; concentration 0.1 nM, read-out: inhibition percentage of 3CL^pro): 0.52%; inhibition at 0.001 µM ([1]; concentration 1 nM, read-out: inhibition percentage of 3CL^pro): 1.86%; inhibition at 0.005 µM ([1]; concentration 5 nM, read-out: inhibition percentage of 3CL^pro): 4.98%; inhibition at 0.01 µM ([1]; concentration 10 nM, read-out: inhibition percentage of 3CL^pro): 7.28%; inhibition at 0.02 µM ([1]; concentration 20 nM, read-out: inhibition percentage of 3CL^pro): 9.3%; inhibition at 0.03 µM ([1]; concentration 30 nM, read-out: inhibition percentage of 3CL^pro): 12.3%; inhibition at 0.05 µM ([1]; concentration 50 nM, read-out: inhibition percentage of 3CL^pro): 18.8%; inhibition at 0.1 µM ([1]; concentration 100 nM, read-out: inhibition percentage of 3CL^pro): 40%; inhibition at 0.5 µM ([1]; concentration 500 nM, read-out: inhibition percentage of 3CL^pro): 70.2%; inhibition at 1 µM ([1]; concentration 1000 nM, read-out: inhibition percentage of 3CL^pro): 85.4%; Survival rate of A549 cells ([4]; 1.5625 nM): 98.43%; Survival rate of A549 cells ([4]; 3.125 nM): 96.76%; Survival rate of A549 cells ([4]; 6.25 nM): 96.86%; Survival rate of A549 cells ([4]; 12.5 nM): 96.42%; Survival rate of A549 cells ([4]; 25 nM): 95.19%; Survival rate of A549 cells ([4]; 50 nM): 93.96%; Survival rate of A549 cells ([4]; 100 nM): 93.51%; Survival rate of A549 cells ([4]; 200 nM): 92.13%; Survival rate of A549 cells ([4]; 400 nM): 89.12%
CCn1nnnc1Cn1c(=O)[nH]/c(=N\c2cc3cn(C)nc3cc2Cl)n(Cc2cc(F)c(F)cc2F)c1=O [Compound 17] | < 200 nM | 160 nM | 93.79% | 93.12% | 93.48% | 90.79% | 85.73% | 84.32% | 83.83% | 79.45% | 78.03% | 95.56% | 95.79% | 94.43% | 91.02% | 90.46% | 87.13% | 83.85% | 80.42% | 76.13% | inhibition percentage of 3CL^pro ([1]; concentration 0.1 nM): 0.76%; inhibition percentage of 3CL^pro ([1]; concentration 1 nM): 1.93%; inhibition percentage of 3CL^pro ([1]; concentration 5 nM): 6.21%; inhibition percentage of 3CL^pro ([1]; concentration 10 nM): 7.67%; inhibition percentage of 3CL^pro ([1]; concentration 20 nM): 12.76%; inhibition percentage of 3CL^pro ([1]; concentration 30 nM): 17.92%; inhibition percentage of 3CL^pro ([1]; concentration 50 nM): 25.23%; inhibition percentage of 3CL^pro ([1]; concentration 100 nM): 44.76%; inhibition percentage of 3CL^pro ([1]; concentration 500 nM): 68.52%; inhibition percentage of 3CL^pro ([1]; concentration 1000 nM): 85.36%; Survival rate of A549 cells ([4]; 1.5625 nM): 98.02%; Survival rate of A549 cells ([4]; 3.125 nM): 97.96%; Survival rate of A549 cells ([4]; 6.25 nM): 97.24%; Survival rate of A549 cells ([4]; 12.5 nM): 96.38%; Survival rate of A549 cells ([4]; 25 nM): 95.77%; Survival rate of A549 cells ([4]; 50 nM): 94.13%; Survival rate of A549 cells ([4]; 100 nM): 94.21%; Survival rate of A549 cells ([4]; 200 nM): 93.31%; Survival rate of A549 cells ([4]; 400 nM): 91.33%
